What is called GI50 is the concentration that inhibits growth by half. A word on the TGI: it is the concentration giving total growth inhibition. Read a low TGI as more potent growth arrest.

Some test systems named below: MCF7 breast; ACHN renal; HS 578T breast; NCI-H23 lung; OVCAR-5 ovarian; MALME-3M melanoma; MDA-MB-435; BT-549 breast; SK-MEL-2 melanoma; OVCAR-3 ovarian.
Common to all, as to assay: DTP human tumour cell line panel, 48 h

Values joined by “and” are separate entries in the source; they are usually repeats but may differ in a detail not shown here. Identical values can stand only once.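 Following 48 hours of exposure in 96-well plates, responses at five concentrations were used to interpolate endpoints linearly. GI50 marks 50% less growth. TGI denotes the concentration required for complete inhibition of growth.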 Some results are limits rather than exact numbers.

Turning to `CC1=CC(=NC(=O)CBr)C=C/C1=N\S(=O)(=O)c1ccccc1`, the GI50 in the test on MCF7 breast is 1.8 µM; in the test on ACHN renal, 2.77 µM; in the test with HS 578T breast, 5.03 µM; with NCI-H23 lung it was 2.36 µM; with OVCAR-5 ovarian, 2.65 µM; in the test with MALME-3M melanoma, 2.06 µM. Further, the GI50 was 3.4 µM with MDA-MB-435, 3.15 µM in the test on BT-549 breast, 4.04 µM with SK-MEL-2 melanoma and 2.04 µM in the test on OVCAR-3 ovarian. Also, the TGI with MCF7 breast was 4.37 µM; in the test with ACHN renal, 8.98 µM; in the test on HS 578T breast, 35.2 µM; in the test with NCI-H23 lung, 5.99 µM; in the test on OVCAR-5 ovarian, 6.86 µM; with MALME-3M melanoma, 5.89 µM. Moreover, the TGI in the test on MDA-MB-435 was found to be 13.7 µM; in the test on BT-549 breast, 10.6 µM; in the test with SK-MEL-2 melanoma it was 16 µM; in the test with OVCAR-3 ovarian, 4.47 µM.

Regarding `Cn1nccc1Nc1nccc(-c2cc3c(s2)C(C)(C)N(CCN2CCOCC2)C3=O)n1`, the GI50 was 24.1 µM in the test with MCF7 breast; 9.53 µM in the test with ACHN renal; 15.9 µM with HS 578T breast; 0.858 µM with NCI-H23 lung; 0.498 µM with OVCAR-5 ovarian; 0.183 µM in the test with MALME-3M melanoma. The GI50 in the test on MDA-MB-435 is 0.852 µM; in the test on BT-549 breast, 19 µM; in the test with SK-MEL-2 melanoma, 0.402 µM; with OVCAR-3 ovarian, 27.2 µM. Besides, the TGI in the test on MCF7 breast, in the test with ACHN renal, in the test on HS 578T breast, in the test with NCI-H23 lung, in the test on OVCAR-5 ovarian and with MALME-3M melanoma was > 100 µM throughout. Besides, the TGI is > 100 µM in the test on MDA-MB-435, 99.8 µM in the test with BT-549 breast, 6.74 µM in the test with SK-MEL-2 melanoma and > 100 µM in the test on OVCAR-3 ovarian.

As for `CN(C)c1ccc(N2Cc3ccccc3OC3=C2C(=O)c2c(O)ccc(O)c2C3=O)cn1`, the GI50 is 0.15 µM in the test on MCF7 breast; 0.158 µM with ACHN renal; 0.444 µM with HS 578T breast; 0.277 µM in the test with NCI-H23 lung; 0.51 µM in the test on OVCAR-5 ovarian; 0.218 µM in the test with MALME-3M melanoma. The GI50 with MDA-MB-435 is 0.237 µM; in the test on BT-549 breast, 0.195 µM; in the test on SK-MEL-2 melanoma, 0.541 µM; with OVCAR-3 ovarian it was 0.233 µM. The total growth inhibition concentration (TGI) is 0.456 µM in the test with MCF7 breast; 0.698 µM in the test with ACHN renal; 26.1 µM in the test on HS 578T breast; 0.927 µM with NCI-H23 lung; 1.56 µM in the test on OVCAR-5 ovarian; 0.495 µM with MALME-3M melanoma. Also, the TGI was determined as 0.544 µM in the test on MDA-MB-435, 0.507 µM in the test on BT-549 breast, 1.49 µM in the test with SK-MEL-2 melanoma and 0.695 µM with OVCAR-3 ovarian.

On to `COc1cc(O)c2c(O)c3c(c4c2c1[C@]1(C4)C(C)=CCCC1(C)C)[C@H](O)[C@@]1(O)CC(=O)C(C(N)=O)=C(O)[C@@]1(O)C3=O`, for which the TGI with MCF7 breast amounted to 1.23 µM; with ACHN renal it was 1.19 µM; in the test on HS 578T breast, 2.25 µM; in the test with NCI-H23 lung, 1.34 µM; in the test with OVCAR-5 ovarian, 1.23 µM; in the test on MALME-3M melanoma it was 0.675 µM. The TGI in the test with MDA-MB-435 amounted to 1.2 µM; in the test on BT-549 breast, 1.54 µM; in the test on SK-MEL-2 melanoma, 0.695 µM; with OVCAR-3 ovarian, 1.38 µM.

Regarding `CC(C)(C)NC(C1=CC(C)(C)c2ccccc2C1=O)c1ccccc1` (configuration not stated), the GI50 with MCF7 breast was 1.32 µM; with ACHN renal, 1.49 µM; in the test on HS 578T breast, 1.43 µM; in the test with NCI-H23 lung it was 1.49 µM; in the test on OVCAR-5 ovarian, 1.82 µM; in the test with MALME-3M melanoma it was 1.34 µM. The GI50 was 1.98 µM with MDA-MB-435, 1.61 µM in the test on BT-549 breast, 1.49 µM in the test on SK-MEL-2 melanoma and 1.31 µM in the test on OVCAR-3 ovarian. The TGI in the test on MCF7 breast was found to be 2.59 µM; in the test with ACHN renal it was 2.82 µM; with HS 578T breast, 6.08 µM; in the test on NCI-H23 lung, 3.17 µM; with OVCAR-5 ovarian it was 3.78 µM; in the test with MALME-3M melanoma, 2.97 µM. The TGI in the test on MDA-MB-435 was determined as 5.4 µM; in the test with BT-549 breast, 4.92 µM; in the test on SK-MEL-2 melanoma, 3.08 µM; in the test with OVCAR-3 ovarian it was 2.58 µM.

In the case of `O=C(CN1CCN(c2ncnc3ccccc23)CC1)Nc1ccc(Cl)cc1C(=O)c1ccccc1Cl`, the GI50 in the test with MCF7 breast was 0.636 µM; in the test with ACHN renal it was 1.67 µM; with HS 578T breast, 0.478 µM; with NCI-H23 lung, 1.18 µM; in the test with OVCAR-5 ovarian, 2.92 µM; in the test with MALME-3M melanoma it was 0.289 µM. In addition, the GI50 in the test on MDA-MB-435 is 0.589 µM; in the test on BT-549 breast, 0.239 µM; with SK-MEL-2 melanoma, 0.723 µM; with OVCAR-3 ovarian, 0.273 µM. Further, the TGI in the test with MCF7 breast was 13.1 µM; with ACHN renal, 18.7 µM; with HS 578T breast, 3.7 µM; in the test with NCI-H23 lung, 3.87 µM; in the test on OVCAR-5 ovarian, > 42.2 µM; in the test with MALME-3M melanoma, 2.52 µM. Further, the TGI in the test with MDA-MB-435 turned out to be 2 µM; in the test on BT-549 breast, 0.618 µM; in the test with SK-MEL-2 melanoma, 2.67 µM; in the test with OVCAR-3 ovarian, 0.824 µM.

`COC(=O)NC1C(C)OC(OC2C/C=C(/C)C3C=CC4C(OC5CC(OC6CC(O)C(OC7CC(O)C(OC)C(C)O7)C(C)O6)C(O)C(C)O5)C(C)CC(C)C4C3(C)/C(O)=C3\C(=O)OC4(CC(C)C(CO)=CC4/C=C\2C)C3=O)CC1(C)[N+](=O)[O-]` (configuration not stated): the GI50 with MCF7 breast is 11.8 µM; with ACHN renal, 14.8 µM; with NCI-H23 lung, 8.68 µM; in the test with OVCAR-5 ovarian, 13.4 µM; with MALME-3M melanoma it was 8.88 µM; in the test on SK-MEL-2 melanoma it was 9.66 µM. The GI50 in the test with OVCAR-3 ovarian was 9.64 µM. Further, the TGI is 44 µM and 13.3 µM in the test with MCF7 breast; 35.5 µM and 30.6 µM in the test with ACHN renal; 40.4 µM in the test with HS 578T breast; 17.2 µM and 27.8 µM in the test on NCI-H23 lung; 30.7 µM and 33.7 µM in the test on OVCAR-5 ovarian; 15.8 µM and 17.8 µM with MALME-3M melanoma. Besides, the concentration for total growth inhibition (TGI) in the test with MDA-MB-435 was 17 µM; in the test on BT-549 breast it was 41.4 µM; with SK-MEL-2 melanoma it was 17.4 µM and 29.6 µM; in the test on OVCAR-3 ovarian, 21 µM and 19.4 µM.

In the case of `COC(=O)Nc1nc2ccc(Oc3ccc(NC(=O)Nc4cccc(C(=O)O)c4)cc3)cc2[nH]1`, the GI50 in the test with MCF7 breast is 4.73 µM; in the test with ACHN renal it was 16.9 µM; in the test with HS 578T breast, 4.28 µM; in the test with NCI-H23 lung, 9.64 µM; in the test with OVCAR-5 ovarian it was 12 µM; with MALME-3M melanoma, 7.92 µM. Further, the GI50 is 1.32 µM in the test with MDA-MB-435, 14.8 µM in the test with BT-549 breast, 9.24 µM in the test with SK-MEL-2 melanoma and 4.41 µM with OVCAR-3 ovarian. The TGI with MCF7 breast is 24.3 µM; in the test with ACHN renal it was > 25 µM; with HS 578T breast it was 24.5 µM; in the test on NCI-H23 lung it was > 25 µM; in the test on OVCAR-5 ovarian, > 25 µM; in the test on MALME-3M melanoma, > 25 µM. The TGI with MDA-MB-435 was 6.03 µM; with BT-549 breast, > 25 µM; with SK-MEL-2 melanoma, > 25 µM; with OVCAR-3 ovarian it was 10.5 µM.

The values are drawn from PubChem BioAssay (NCI).
